BigSolDB 2.1

O=C(/C=C/c1ccc(O)c(O)c1)O[C@H](Cc1ccc(O)c(O)c1)C(=O)O
solubility (mole fraction)
Conditions	293.15 K	298.15 K	303.15 K	308.15 K	313.15 K
in ethyl acetate	0.0345	0.0466	0.0506	0.0588	0.0722
in methyl acetate	0.0363	0.049	0.0533	0.0619	0.0764
